From patent US20010041365A1, “Methods for monitoring alcohol consumption” (priority 2000, published 2001)
Read-outs that look alike come from different tables or passages of the source. Marks after values point to notes of the source that are not given here.

Columns and labels:
[1] = Distribution of plasma FAEE species in chronic alcoholics vs. acutely intoxicated individuals (Example 6); assay type: in vivo, human; conditions: for proportion of total FAEE, acute drinkers relative to chronic drinkers: plasma
Source text: Plasma was obtained from chronic alcoholics (i.e. chronic drinkers) at the time of admission to a detoxification program. Acutely intoxicated control subjects used for comparison in this study were normal, healthy volunteers who also participated in the study concerning gender and alcoholic beverage type (see above).

[2] = Plasma FAEE levels in acute (binge) and chronic drinkers at peak ethanol levels and 24 hours after peak (Example 7); assay type: in vivo, human; conditions: for mean difference between proportion of total FAEE which is ethyl stearate and proportion which is ethyl oleate: 24 hours after alcohol consumption; for average proportion of total FAEE which is ethyl oleate: peak or near peak ethanol levels; for concentration at 24 h: human, plasma, oral; for Proportion of Ethyl Oleate in Binge Drinkers (Mean +/− SEM) / Proportion of Ethyl Oleate in Binge Drinkers (range) / Proportion of Ethyl Oleate in Chronic Drinkers (Mean +/− SEM) / Proportion of Ethyl Oleate in Chronic Drinkers (range): of total FAEE in plasma
Description: Thus, as an example, gas chromatography either alone or in combination with mass spectrometry and/or an initial step of solid phase extraction can be used to determine total and/or individual fatty acid ethyl ester concentrations. […] If the sample has been previously harvested and frozen, it is thawed out and a 1 mL aliquot is removed for analysis. […] In order to determine and quantitate FAEE content, an internal standard of 1 nmol of ethyl heptadecanoate (ethyl 17:0) is added to each sample. Samples are extracted with acetone hexane (2:8, by volume) and dried under nitrogen vapors to a volume of approximately 300 μL. FAEEs are isolated by solid phase extraction using Bond Elut-LRC aminopropyl columns. Columns are pre-washed with dichloromethane followed by hexane; the sample is then applied to the column and eluted by successive washes of hexane and dichloromethane. Combined eluates are concentrated, and FAEEs are then quantified by GC-MS using a Hewlett Packard 5890 Series II gas chromatograph equipped with a Supelcowax SP-2330 capillary column coupled to an HP-5971 mass spectrometer. The injector and detector are maintained at 260° C. and 280° C., respectively. The oven program is initially maintained at 130° C. for 2 minutes then ramped to 160° C. at 5° C./min, ramped again at 2° C./min to 180° C., held for 7 min, finally, ramped to 230° C. at 15° C/min and maintained for 2 min. Carrier gas flow rate is maintained at a constant 0.8 mL/min throughout. Single-ion monitoring is performed, quantifying appropriate base ions for individual FAEE species [i.e., ions m/z 67, 88, and 101 for ethyl palmitate (E16:0), ethyl heptadecanoate (E17:0), ethyl stearate (E18:0), ethyl oleate (E18:1), and ethyl linoleate (E18.2); and ions m/z 79 and 91 for ethyl arachidonate (E20:4), ethyl eicosapentaenoate (E20:5), and ethyl docosahexaenoate (E22:6)]. FAEEs are quantitated by interpolation of the slope generated from individually prepared calibration curves comparing areas of varying concentrations of E16:0-E22:6 to fixed concentrations of the internal standard (E17:0). Mass relationships are obtained for each FAEE using its individual calibration curve. Total FAEE mass is determined by the addition of masses of individual FAEEs (E16:0-E22:6).
A subset of human subjects presenting at the Massachusetts General Hospital with apparent alcohol related symptoms were entered into this study. Blood was collected from such subjects immediately at the time of presentation, which was assumed to be at peak or near peak ethanol levels, and again 24 hours after presentation. A medical history taken from each subject was used to categorize the subject as a chronic alcoholic or an acute (i.e., binge) drinker. Blood samples were processed, as described herein, to determine the absolute levels of ethyl palmitate, ethyl oleate and total FAEE in plasma.

[3] = Serum FAEE and blood ethanol over time in men and women after alcohol consumption over 90 minutes (Example 1); assay type: in vivo, human
Description: Seven volunteers (four men and […]) were given measured amounts of 100-proof vodka mixed with fruit juice in a 1:3 ratio which was weight-adjusted to increase blood ethanol levels to approximately 120-147 mg/dL. The beverage was divided in 9 equal aliquots which the subjects drank over a 90 minute period, 1 aliquot every 10 minutes. This alcohol intake represented consumption to the legal limit of intoxication. Once the drinking commenced, blood was collected from a catheter every 15 min for the first 2.5 h. Between 2.5 and 4.0 h, samples were collected every 30 min; and from 4 to 8 h, they were collected every 60 min. A final blood sample was also collected 24 h after the ethanol ingestion commenced. Blood was collected from a peripheral venous catheter into vacuum tubes without anti-coagulant (for serum FAEE) and into tubes with the anti-coagulant sodium citrate (for plasma ethanol). (Soderberg, et al., Clinical Chemistry, 45(12):2183-2190, 1999; Doyle, K. M. et al., JAMA, 276:1152-1156, 1996)
All samples were extracted with acetone/hexane (2/8, v/v) and dried under nitrogen vapors to a volume of approximately 300 μL. […] FAEEs were then quantitated by gas chromatography-mass spectrometry (GC-MS) using a Hewlett-Packard 5890 Series II gas chromatograph equipped with a Supelcowax SP-2330 capillary column coupled to an HP-5971 mass spectrometer.

[4] = Post-mortem liver and adipose FAEE as markers of pre-mortem ethanol intake (Example 9); assay type: in vivo; conditions: autopsy tissue
Source text: This study was approved by both the Massachusetts Medical Examiner Office Committee and the Massachusetts General Hospital Pathology Quality Assurance Committee. Twenty-four sets of samples were collected at the Massachusetts State Medical Examiner's Office and 7 sets of samples were obtained from the Pathology Department of Massachusetts General Hospital. Medical history, history of ethanol ingestion (obtained from the organ bank, treating physician, health insurance records, and/or relatives), and the blood ethanol level at autopsy were obtained in each case. Only cases with available blood ethanol levels were included in this study. Individuals who had detectable blood ethanol levels at the time of autopsy, with or without a history of ethanol abuse, were grouped as “positive for ethanol.” Individuals categorized in the chronic alcoholic or social drinker groups met all of the following criteria a) no known alcohol intake immediately prior to death; b) undetectable blood ethanol level in blood samples collected at autopsy; and c) no suspicious incident at the time of death. In addition, chronic alcoholics were diagnosed according to the Diagnostic and Statistical Manual-IV.
Samples of liver and adipose tissue were collected at autopsy from randomly selected cases and FAEE were isolated and quantitated from these organs as mass per gram wet weight. […]

[5] = a day after peak or near peak alcohol levels
[6] = binge drinkers, 24 hours after peak ethanol levels

Which results are given for `CCCCCCCCCCCCCCCC(=O)OCC` [ethyl palmitate]?
proportion of total FAEE, acute drinkers relative to chronic drinkers [1]: almost three times higher; Ethyl Palmitate to Ethyl Oleate Ratio in Chronic Drinkers (Mean +/− SEM) ([2]; 24 hours after peak): (0.41 +/− 0.03); Ethyl Palmitate to Ethyl Oleate Ratio in Chronic Drinkers (range) ([2]; 24 hours after peak): 0.22-0.73; Ethyl Palmitate to Ethyl Oleate Ratio in Binge Drinkers (Mean +/− SEM) ([2]; 24 hours after peak, mean calculated using a value of 100 where the ratio was ∞): (69.8 +/− 13.1)*; P/O ratio of all chronic drinkers [2, 5]: less than 1.0; P/O ratio of most binge drinkers [2, 5]: ∞; mean proportion of total FAEE which is ethyl palmitate [2, 6]: 80%; mean proportion of total FAEE which is ethyl palmitate ([2]; binge drinkers, peak or near peak alcohol levels): 49%; mean proportion of total FAEE which is ethyl palmitate ([2]; chronic alcoholics, 24 hours after peak ethanol levels): 29%; mean proportion of total FAEE which is ethyl palmitate ([2]; chronic alcoholics, peak or near peak alcohol levels): 38%; Ethyl Palmitate to Ethyl Oleate Ratio in Binge Drinkers (Mean +/− SEM) ([2]; peak or near peak): (6.28 +/− 5.0); Ethyl Palmitate to Ethyl Oleate Ratio in Binge Drinkers (range) ([2]; peak or near peak): 0.96-70.65; Ethyl Palmitate to Ethyl Oleate Ratio in Chronic Drinkers (Mean +/− SEM) ([2]; peak or near peak): (1.27 +/− 0.12); Ethyl Palmitate to Ethyl Oleate Ratio in Chronic Drinkers (range) ([2]; peak or near peak): 0.53-3.49

Which results are given for `CCCCCCCCCCCCCCCCCC(=O)OCC` [ethyl stearate]?
proportion of total FAEE, acute drinkers relative to chronic drinkers [1]: ~15 fold; mean difference between proportion of total FAEE which is ethyl stearate and proportion which is ethyl oleate ([2]; binge drinkers): about 10%; mean difference between proportion of total FAEE which is ethyl stearate and proportion which is ethyl oleate ([2]; chronic alcoholics): roughly 70%

What does the source list for `CCO` [ethanol]?
time at which blood ethanol decreased to initial levels ([3]; after the beginning of alcohol intake): about 500 minutes; maximum level of blood ethanol ([3]; both men and women): approximately 130 mg/dL

With `CCCCCCCC/C=C\CCCCCCCC(=O)OCC` [ethyl oleate] as the molecule, how does the “percent of total FAEE in plasma” value ([1]; acute drinkers) read?
The value was “about 30%”.

And the “percent of total FAEE in plasma” value ([1]; chronic drinkers, at admission to detoxification program)?
Its value is about 75%.

What about the “Concentration of Ethyl Oleate in Binge Drinkers (Mean +/− SEM)” value ([2]; 24 hours after peak) of the same molecule?
The value was “(14 ± 8) pmol/mL”.

What about the “Concentration of Ethyl Oleate in Chronic Drinkers (Mean +/− SEM)” value ([2]; 24 hours after peak) of the same molecule?
The value was “(2714 ± 1821) pmol/mL”.

What about the “proportion of total FAEE which is ethyl oleate” value [2, 6] of the same molecule?
Its value is 10%.

What about the “average proportion of total FAEE which is ethyl oleate” value ([2]; binge drinkers) of the same molecule?
Its value is 32%.

What about the “proportion of total FAEE which is ethyl oleate” value ([2]; chronic drinkers, 24 hours after peak ethanol levels) of the same molecule?
The value was 71%.

And the “average proportion of total FAEE which is ethyl oleate” value ([2]; chronic drinkers)?
The value was 28%.

And the concentration at 24 h ([2]; 24 hours after peak ethanol levels, read-out: concentration of ethyl oleate in the majority of binge drinkers (9 out of 13))?
The concentration at 24 h was under 0.001 µM.

And the concentration at 24 h ([2]; 24 hours after peak, read-out: Concentration of Ethyl Oleate in Binge Drinkers (range))?
Its concentration at 24 h is 0 to 0.08 µM.

And the concentration at 24 h ([2]; 24 hours after peak, read-out: Concentration of Ethyl Oleate in Chronic Drinkers (range))?
Its concentration at 24 h is 0.12 to 28.1 µM.

And the “Proportion of Ethyl Oleate in Binge Drinkers (Mean +/− SEM)” value ([2]; 24 hours after peak)?
Its value is “(0.09 +/− 0.04)”.

What about the “Proportion of Ethyl Oleate in Binge Drinkers (range)” value ([2]; 24 hours after peak) of the same molecule?
Its value is 0.01-0.46.

And the “Proportion of Ethyl Oleate in Chronic Drinkers (Mean +/− SEM)” value ([2]; 24 hours after peak)?
Its value is “(0.71 +/− 0.02)”.

What about the “Proportion of Ethyl Oleate in Chronic Drinkers (range)” value ([2]; 24 hours after peak) of the same molecule?
The value was 0.58-0.82.

And the “Proportion of Ethyl Oleate in Binge Drinkers (Mean +/− SEM)” value ([2]; peak or near peak ethanol)?
The value was “(0.28 +/− 0.02)”.

And the “Proportion of Ethyl Oleate in Binge Drinkers (range)” value ([2]; peak or near peak ethanol)?
Its value is 0.01-0.44.

What about the “Proportion of Ethyl Oleate in Chronic Drinkers (Mean +/− SEM)” value ([2]; peak or near peak ethanol) of the same molecule?
Its value is “(0.32 +/− 0.02)”.

And the “Proportion of Ethyl Oleate in Chronic Drinkers (range)” value ([2]; peak or near peak ethanol)?
Its value is 0.16-0.46.

And the “Concentration of Ethyl Oleate in Binge Drinkers (Mean +/− SEM)” value ([2]; peak or near peak ethanol)?
Its value is “(557 ± 82) pmol/mL”.

And the “Concentration of Ethyl Oleate in Binge Drinkers (range)” value ([2]; peak or near peak ethanol)?
Its value is 0.184 to 1.049 µM.

What about the “Concentration of Ethyl Oleate in Chronic Drinkers (Mean +/− SEM)” value ([2]; peak or near peak ethanol) of the same molecule?
The value was “(2817 +/− 780) pmol/mL”.

And the “Concentration of Ethyl Oleate in Chronic Drinkers (range)” value ([2]; peak or near peak ethanol)?
Its value is 0.096 to 16.011 µM.

For `CCCCC/C=C\C/C=C\C/C=C\C/C=C\CCCC(=O)OCC` [ethyl arachidonate], which “level in liver and adipose, individuals with detectable blood ethanol at autopsy compared with chronic alcoholics and social drinkers” value [4] is on record?
Its value is “markedly higher”.
